Molecules are shown by their SMILES.

Here are results for twelve compounds from ChEMBL document CHEMBL2311460, “Synthesis and antiplasmodial activity of some 1-azabenzanthrone derivatives” (Bioorg Med Chem Lett, 2013).

Data set [1] can be described thus: Selectivity index, ratio of IC50 for human MRC5 cells to IC50 for chloroquine-resistant Plasmodium falciparum FCR-3. In kind it is toxicity, cell-based. As to conditions: read-out: Ratio IC50.
The next data set concerns MRC5. Put plainly: Cytotoxicity against human MRC5 cells. The data set is classed as cell-based.
The next data set has as its system Plasmodium falciparum. Put plainly: Antiplasmodial activity against chloroquine-resistant Plasmodium falciparum FCR-3 infected in human A positive erythrocytes by [3H]-hypoxanthine incorporation assay. The data set is classed as functional, organism-based. The conditions noted are these: FCR-3/Gambia.

In the case of `COc1cc2ccnc3c2c(c1N)C(=O)c1ccccc1-3` [LAKSHMININE], the selectivity ratio in data set [1] turned out to be 0.18. For the same compound, the figures for the IC50 with MRC5 and in the data set on Plasmodium falciparum were 17.9 µM and 100 µM, respectively.

As for `COc1cc2ccnc3c2c(c1O)C(=O)c1ccccc1-3`, the selectivity ratio in data set [1] worked out at 1.27. For the same compound, the values for the IC50 with MRC5 and with Plasmodium falciparum were 65.1 µM and 51 µM, respectively.

As to `COc1cc2c3c(nccc3c1Br)-c1ccccc1C2=O`, the selectivity ratio in data set [1] is more than 1.99. The IC50 in the data set with MRC5 was more than 100 µM; in the data set on Plasmodium falciparum, 52 µM.

With `COc1cc2ccnc3c2c(c1[N+](=O)[O-])C(=O)c1ccccc1-3`, the selectivity ratio in data set [1] came to 1.42. The IC50 in the data set with MRC5 turned out to be 80 µM; with Plasmodium falciparum, 56 µM.

`COc1cc2c3c(nccc3c1[N+](=O)[O-])-c1ccccc1C2=O`: the selectivity ratio in data set [1] turned out to be 0.49. In addition, the values for the IC50 in the data set on MRC5 and with Plasmodium falciparum were 10.2 µM and 21 µM, respectively.

`O=C1c2ccccc2-c2nccc3cccc1c23`: the selectivity ratio in data set [1] turned out to be 0.18. Further, the half-maximal inhibitory concentration (IC50) with MRC5 is 41.6 µM; in the data set with Plasmodium falciparum, 230 µM.

As for `COc1cc2c3c(nccc3c1N)-c1ccccc1C2=O`, the selectivity ratio in data set [1] was determined as 0.37. Also, the IC50 amounted to 37 µM with MRC5 and 100 µM in the data set with Plasmodium falciparum.

With `O=C1c2ccccc2-c2ncc(Br)c3cccc1c23`, the selectivity ratio in data set [1] was more than 0.38. The half-inhibitory concentration (IC50) in the data set on MRC5 is more than 100 µM; in the data set on Plasmodium falciparum it was 260 µM.

As to `COc1cc2c3c(nccc3c1)-c1ccccc1C2=O`, the selectivity ratio in data set [1] was more than 15.6. Moreover, the half-maximal inhibitory concentration (IC50) with MRC5 was more than 100 µM; in the data set on Plasmodium falciparum it was 6.4 µM.

For the compound `COc1cc2c3c(ncc(Br)c3c1)-c1ccccc1C2=O`, the selectivity ratio in data set [1] was 0.13. Further, the IC50 with MRC5 amounted to 28.9 µM; in the data set with Plasmodium falciparum, 220 µM.

For the compound `COc1cc2c3c(c1)C(=O)c1ccccc1C3=NCC2`, the selectivity ratio in data set [1] came out at 32.4. In addition, the values for the IC50 in the data set with MRC5 and in the data set on Plasmodium falciparum were 81.3 µM and 2.5 µM, respectively.

Consider `COc1cc2ccnc3c2c(c1OC)C(=O)c1ccccc1-3`, for which the selectivity ratio in data set [1] was determined as 0.68. Besides, the IC50 in the data set with MRC5 worked out at 50.5 µM; with Plasmodium falciparum, 74 µM.

For orientation: IC50 means the concentration needed to halve the response being measured. The low end stands for higher potency, the high end for lower potency.
